We go through 17 compounds from the NIST ThermoML archive (doi:10.1021/je700282w).

The nature of this data set: activity coefficient (dimensionless); of the first substance listed, at infinite dilution; xn = mol fraction of the nth substance listed. As to conditions: 101 kPa, Liquid, Chromatography, x1 = 0.

Structures are written as SMILES. ± gives the expanded uncertainty stated by the source.

Consider `Cc1ccccc1C` [1,2-dimethylbenzene] + CCCCn1cc[n+](C)c1.O=S(=O)([O-])C(F)(F)F, for which the activity coefficient came to 3.66 ± 0.36 (303.15 K); 3.67 ± 0.36 (313.15 K); 3.68 ± 0.37 (323.15 K); 3.7 ± 0.37 (333.15 K); 3.71 ± 0.37 (343.15 K); 3.76 ± 0.37 (353.15 K). Also, the activity coefficient (363.15 K) is 3.78 ± 0.38.
Take `Cc1cccc(C)c1` [1,3-dimethylbenzene] + CCCCn1cc[n+](C)c1.O=S(=O)([O-])C(F)(F)F: the activity coefficient was 4.72 ± 0.47 (303.15 K); 4.66 ± 0.46 (313.15 K); 4.58 ± 0.46 (323.15 K); 4.47 ± 0.45 (333.15 K); 4.41 ± 0.44 (343.15 K); 4.33 ± 0.43 (353.15 K). Further, the activity coefficient (363.15 K) worked out at 4.07 ± 0.41.
For `Cc1ccc(C)cc1` [1,4-dimethylbenzene] + CCCCn1cc[n+](C)c1.O=S(=O)([O-])C(F)(F)F, the activity coefficient is 4.3 ± 0.43 (303.15 K); 4.32 ± 0.43 (313.15 K); 4.33 ± 0.43 (323.15 K); 4.37 ± 0.43 (333.15 K); 4.41 ± 0.44 (343.15 K); 4.42 ± 0.44 (353.15 K). For the same compound, the activity coefficient (363.15 K) was 4.42 ± 0.44.
With `CC(C)CC(C)(C)C` [2,2,4-trimethylpentane] + CCCCn1cc[n+](C)c1.O=S(=O)([O-])C(F)(F)F, the activity coefficient by setting is: (303.15 K) 57 ± 5.7; (313.15 K) 52.9 ± 5.3; (323.15 K) 50.9 ± 5.1; (333.15 K) 47.9 ± 4.8; (343.15 K) 45.6 ± 4.5; (353.15 K) 43.9 ± 4.4. The activity coefficient (363.15 K) is 40.8 ± 4.1.
As to `c1ccccc1` [benzene] + CCCCn1cc[n+](C)c1.O=S(=O)([O-])C(F)(F)F, the activity coefficient is, setting by setting: (303.15 K) 1.81 ± 0.18; (313.15 K) 1.82 ± 0.18; (323.15 K) 1.83 ± 0.18; (333.15 K) 1.84 ± 0.18; (343.15 K) 1.86 ± 0.18; (353.15 K) 1.87 ± 0.19. The activity coefficient (363.15 K) stood at 1.9 ± 0.19.
As to `C1CCCCC1` [cyclohexane] + CCCCn1cc[n+](C)c1.O=S(=O)([O-])C(F)(F)F, the activity coefficient stood at 21.8 ± 2.2 (303.15 K); 20.5 ± 2 (313.15 K); 19.2 ± 1.9 (323.15 K); 18.1 ± 1.8 (333.15 K); 16.9 ± 1.7 (343.15 K); 15.5 ± 1.5 (353.15 K). In addition, the activity coefficient (363.15 K) worked out at 14.6 ± 1.4.
`C1=CCCCC1` [cyclohexene] + CCCCn1cc[n+](C)c1.O=S(=O)([O-])C(F)(F)F: the activity coefficient (303.15 K) was 10.9 ± 1.1; the activity coefficient (313.15 K) was determined as 10.4 ± 1; the activity coefficient (323.15 K) was 10.1 ± 1; the activity coefficient (333.15 K) was 9.69 ± 0.96; the activity coefficient (343.15 K) was 9.34 ± 0.93; the activity coefficient (353.15 K) was determined as 9.15 ± 0.91. Further, where the note is “363.15 K”, the activity coefficient is 8.82 ± 0.88.
As to `CCCCCCCCCC` [decane] + CCCCn1cc[n+](C)c1.O=S(=O)([O-])C(F)(F)F, the activity coefficient was 897 (303.15 K); 709 (313.15 K); 576 (323.15 K); 483 (333.15 K); 409 (343.15 K); 348 (353.15 K). Where the note is “363.15 K”, the activity coefficient came out at 306.
For `CCc1ccccc1` [ethylbenzene] + CCCCn1cc[n+](C)c1.O=S(=O)([O-])C(F)(F)F, the activity coefficient is, setting by setting: (303.15 K) 4.62 ± 0.46; (313.15 K) 4.57 ± 0.46; (323.15 K) 4.54 ± 0.45; (333.15 K) 4.52 ± 0.45; (343.15 K) 4.5 ± 0.45; (353.15 K) 4.49 ± 0.45. The activity coefficient (363.15 K) was 4.47 ± 0.44.
As to `CCCCCCC` [heptane] + CCCCn1cc[n+](C)c1.O=S(=O)([O-])C(F)(F)F, the activity coefficient (303.15 K) worked out at 56.7 ± 5.7; the activity coefficient (313.15 K) was 51.6 ± 5.2; the activity coefficient (323.15 K) was determined as 48.5 ± 4.8; the activity coefficient (333.15 K) came to 46 ± 4.6; the activity coefficient (343.15 K) is 43.3 ± 4.3; the activity coefficient (353.15 K) stood at 41.1 ± 4.1. Further, the activity coefficient (363.15 K) was 38.8 ± 3.9.
Regarding `CCCCCC` [hexane] + CCCCn1cc[n+](C)c1.O=S(=O)([O-])C(F)(F)F, the activity coefficient (303.15 K) turned out to be 37.8 ± 3.8; the activity coefficient (313.15 K) was 35.7 ± 3.6; the activity coefficient (323.15 K) is 33.9 ± 3.4; the activity coefficient (333.15 K) amounted to 32.1 ± 3.2; the activity coefficient (343.15 K) was 30.3 ± 3; the activity coefficient (353.15 K) came to 29.1 ± 2.9. The activity coefficient (363.15 K) stood at 27.6 ± 2.8.
Regarding `CC1CCCCC1` [methylcyclohexane] + CCCCn1cc[n+](C)c1.O=S(=O)([O-])C(F)(F)F, the activity coefficient reads like this: (303.15 K) 30.2 ± 3; (313.15 K) 28.5 ± 2.8; (323.15 K) 26.8 ± 2.7; (333.15 K) 25.4 ± 2.5; (343.15 K) 24.1 ± 2.4; (353.15 K) 22.9 ± 2.3. For the setting “363.15 K”, the activity coefficient came to 21.6 ± 2.1.
`CCCCCCCCC` [nonane] + CCCCn1cc[n+](C)c1.O=S(=O)([O-])C(F)(F)F: the activity coefficient amounted to 122 ± 12 (303.15 K); 111 ± 11 (313.15 K); 103 ± 10 (323.15 K); 93.3 ± 9.3 (333.15 K); 88.2 ± 8.8 (343.15 K); 81.3 ± 8.1 (353.15 K). The activity coefficient (363.15 K) is 75.9 ± 7.6.
For `CCCCCCCC` [octane] + CCCCn1cc[n+](C)c1.O=S(=O)([O-])C(F)(F)F, the activity coefficient is 87.2 ± 8.7 (303.15 K); 79.9 ± 8 (313.15 K); 74.1 ± 7.4 (323.15 K); 68.3 ± 6.8 (333.15 K); 63.2 ± 6.3 (343.15 K); 60.3 ± 6 (353.15 K). In addition, the activity coefficient (363.15 K) is 55.1 ± 5.5.
Regarding `CCCCC` [pentane] + CCCCn1cc[n+](C)c1.O=S(=O)([O-])C(F)(F)F, the activity coefficient by setting is: (303.15 K) 26.5 ± 2.6; (313.15 K) 24.9 ± 2.5; (323.15 K) 23.9 ± 2.4; (333.15 K) 23.2 ± 2.3; (343.15 K) 22.2 ± 2.2; (353.15 K) 21.2 ± 2.1. For the same compound, the activity coefficient (363.15 K) stood at 19.9 ± 2.
With `C=Cc1ccccc1` [styrene] + CCCCn1cc[n+](C)c1.O=S(=O)([O-])C(F)(F)F, the activity coefficient (303.15 K) was found to be 2.46 ± 0.24; the activity coefficient (313.15 K) turned out to be 2.48 ± 0.25; the activity coefficient (323.15 K) amounted to 2.49 ± 0.25; the activity coefficient (333.15 K) worked out at 2.51 ± 0.25; the activity coefficient (343.15 K) is 2.53 ± 0.25; the activity coefficient (353.15 K) turned out to be 2.54 ± 0.25. For the same compound, under “363.15 K”, the activity coefficient came to 2.57 ± 0.26.
For `Cc1ccccc1` [toluene] + CCCCn1cc[n+](C)c1.O=S(=O)([O-])C(F)(F)F, the activity coefficient reads like this: (303.15 K) 2.72 ± 0.27; (313.15 K) 2.75 ± 0.27; (323.15 K) 2.78 ± 0.28; (333.15 K) 2.8 ± 0.28; (343.15 K) 2.83 ± 0.28; (353.15 K) 2.85 ± 0.28. In addition, for the setting “363.15 K”, the activity coefficient was 2.88 ± 0.29.
